# Experimental data taken from US20260262643A1, “HERBICIDAL BENZOXAZINES” (FMC CORPORATION, priority 2022, published 2026).
# Experiments:
# barnyardgrass [1] = assay: Test C preemergence; assay type: in vivo, Echinochloa crusgalli; conditions: 0 to 100 scale (0 no effect, 100 complete control); for Plant response rating, Barnyardgrass: Preemergence, visual rating after 10 days
# From the text: (§1) Seeds of plant species selected from barnyardgrass (Echinochloa crusgalli), blackgrass (Alopecurus myosuroides), corn (Zea mays), foxtail, giant (giant foxtail, Setaria faberi), green foxtail (Setaria viridis), goosegrass (Eleusine indica), kochia (Bassia scoparia), oat, wild (wild oat, Avena fatua), pigweed, palmer (palmer amaranth, palmer pigweed, Amaranthus palmeri), Pigweed, Redroot (redroot pigweed, Amaranthus retroflexus), ragweed (common ragweed, Ambrosia artemisiifolia), ryegrass, Italian ([…] ryegrass, Lolium multiflorum), soybean (Glycine max), and wheat (Triticum aestivum) were planted into a blend of loam soil and sand and treated preemergence with a directed soil spray using test chemicals formulated in a non-phytotoxic solvent mixture which included a surfactant. At the same time, plants selected from these crops and weed species and also galium (catchweed bedstraw, Galium aparine) and horseweed (Erigeron canadensis) were planted in pots containing the same blend of loam soil and sand and treated with postemergence applications of test chemicals formulated in the same manner. Plants ranged in height from 2 to 10 cm and were in the one- to two-leaf stage for the postemergence treatment. Treated plants and untreated controls were maintained in a greenhouse for 10 days, after which time all treated plants were compared to untreated controls and visually evaluated for injury. Plant response ratings, summarized in Table C, are based on a 0 to 100 scale where 0 is no effect and 100 is complete control. A dash (-) response means no test result.
# blackgrass [2] = assay: Test C preemergence; assay type: in vivo, Alopecurus myosuroides; conditions: 0 to 100 scale (0 no effect, 100 complete control); for Plant response rating, Blackgrass: Preemergence, visual rating after 10 days
# From the text: as §1
# corn [3] = assay: Test C preemergence; assay type: in vivo, Zea mays; conditions: 0 to 100 scale (0 no effect, 100 complete control)
# From the text: as §1
# green foxtail [4] = assay: Test C preemergence; assay type: in vivo, Setaria viridis; conditions: 0 to 100 scale (0 no effect, 100 complete control); for Plant response rating, Foxtail, Green: Preemergence, visual rating after 10 days
# From the text: as §1
# kochia [5] = assay: Test C preemergence; assay type: in vivo, Bassia scoparia; conditions: 0 to 100 scale (0 no effect, 100 complete control); for Plant response rating, Kochia: Preemergence, visual rating after 10 days
# From the text: as §1
# oat, wild [6] = assay: Test C preemergence; assay type: in vivo, Avena fatua; conditions: 0 to 100 scale (0 no effect, 100 complete control)
# From the text: as §1
# pigweed, palmer [7] = assay: Test C preemergence; assay type: in vivo, Amaranthus palmeri; conditions: 0 to 100 scale (0 no effect, 100 complete control); for Plant response rating, Pigweed, Palmer: Preemergence, visual rating after 10 days
# From the text: as §1
# ragweed [8] = assay: Test C preemergence; assay type: in vivo, Ambrosia artemisiifolia; conditions: 0 to 100 scale (0 no effect, 100 complete control); for Plant response rating, Ragweed: Preemergence, visual rating after 10 days
# From the text: as §1
# ryegrass, Italian [9] = assay: Test C preemergence; assay type: in vivo, Lolium multiflorum; conditions: 0 to 100 scale (0 no effect, 100 complete control); for Plant response rating, Ryegrass, Italian: Preemergence, visual rating after 10 days
# From the text: as §1
# soybean [10] = assay: Test C preemergence; assay type: in vivo, Glycine max; conditions: 0 to 100 scale (0 no effect, 100 complete control)
# From the text: as §1
# wheat [11] = assay: Test C preemergence; assay type: in vivo, Triticum aestivum; conditions: 0 to 100 scale (0 no effect, 100 complete control)
# From the text: as §1
# barnyardgrass [12] = assay: Test C postemergence; assay type: in vivo, Echinochloa crusgalli
# From the text: as §1
# blackgrass [13] = assay: Test C postemergence; assay type: in vivo, Alopecurus myosuroides; conditions: 10 days
# From the text: as §1
# corn [14] = assay: Test C postemergence; assay type: in vivo, Zea mays; conditions: 10 days
# From the text: as §1
# kochia [15] = assay: Test C postemergence; assay type: in vivo, Bassia scoparia; conditions: 10 days
# From the text: as §1
# oat, wild [16] = assay: Test C postemergence; assay type: in vivo, Avena fatua; conditions: 10 days
# From the text: as §1
# pigweed, palmer [17] = assay: Test C postemergence; assay type: in vivo, Amaranthus palmeri; conditions: 10 days
# From the text: as §1
# ragweed [18] = assay: Test C postemergence; assay type: in vivo, Ambrosia artemisiifolia; conditions: 10 days
# From the text: as §1
# ryegrass, Italian [19] = assay: Test C postemergence; assay type: in vivo, Lolium multiflorum; conditions: 10 days
# From the text: as §1
# soybean [20] = assay: Test C postemergence; assay type: in vivo, Glycine max; conditions: 10 days
# From the text: as §1
# wheat [21] = assay: Test C postemergence; assay type: in vivo, Triticum aestivum; conditions: 10 days
# From the text: as §1
# galium = assay: Test C postemergence; assay type: in vivo, Galium aparine; conditions: 10 days
# From the text: as §1
# horseweed = assay: Test C postemergence; assay type: in vivo, Erigeron canadensis; conditions: 10 days
# From the text: as §1
# green foxtail [22] = assay: Test C postemergence; assay type: in vivo, Setaria viridis; conditions: Postemergence, 1000 g ai/ha, 10 days, visual 0 to 100 scale (0 no effect, 100 complete control)
# From the text: as §1
# [23] = Test C, preemergence, 125 g ai/ha
# [24] = Preemergence, 500 g ai/ha, visual rating after 10 days
# [25] = 125 g ai/ha, postemergence, 0 to 100 scale, 0 no effect, 100 complete control
# [26] = Postemergence, 500 g ai/ha, visual 0 to 100 scale (0 no effect, 100 complete control)
# [27] = Postemergence, 1000 g ai/ha, 0 to 100 scale, 0 no effect, 100 complete control
# [28] = Postemergence, 1000 g ai/ha, visual 0 to 100 scale (0 no effect, 100 complete control)
compound,measurement,setting,value
Cc1cccc2c1O[C@@H](C)CN2C(=O)c1cccc(-n2cnc(N(C)C)n2)c1 [Compound 226],"Plant response rating, Barnyardgrass",barnyardgrass [1]; 500 g ai/ha,90
same,Barnyardgrass plant response rating,barnyardgrass [1]; [23],50
same,"Plant response rating, Blackgrass",blackgrass [2]; 500 g ai/ha,60
same,Blackgrass plant response rating,blackgrass [2]; [23],30
same,"Plant response rating, Corn",corn [3]; [24],0
same,Corn plant response rating,corn [3]; [23],0
same,"Plant response rating, Foxtail, Green",green foxtail [4]; 500 g ai/ha,100
same,"Foxtail, Green plant response rating",green foxtail [4]; [23],100
same,"Plant response rating, Kochia",kochia [5]; 500 g ai/ha,90
same,Kochia plant response rating,kochia [5]; [23],50
same,"Plant response rating, Oat, Wild","oat, wild [6]; [24]",60
same,"Oat, Wild plant response rating","oat, wild [6]; [23]",40
same,"Plant response rating, Pigweed, Palmer","pigweed, palmer [7]; 500 g ai/ha",90
same,"Pigweed, Palmer plant response rating","pigweed, palmer [7]; [23]",50
same,"Plant response rating, Ragweed",ragweed [8]; 500 g ai/ha,20
same,Ragweed plant response rating,ragweed [8]; [23],20
same,"Plant response rating, Ryegrass, Italian","ryegrass, Italian [9]; 500 g ai/ha",70
same,"Ryegrass, Italian plant response rating","ryegrass, Italian [9]; [23]",70
same,"Plant response rating, Soybean",soybean [10]; [24],30
same,Soybean plant response rating,soybean [10]; [23],20
same,"Plant response rating, Wheat",wheat [11]; [24],10
same,Wheat plant response rating,wheat [11]; [23],0
same,"Plant response rating, Barnyardgrass","barnyardgrass [12]; 125 g ai/ha, postemergence, 10 days, 0 to 100 scale, 0 no effect, 100 complete control",50
same,"Plant response rating, Barnyardgrass","barnyardgrass [12]; Postemergence, 500 g ai/ha, 10 days, visual 0 to 100 scale (0 no effect, 100 complete control)",80
same,"Plant response rating, Blackgrass",blackgrass [13]; [25],60
same,"Plant response rating, Blackgrass",blackgrass [13]; [26],90
same,"Plant response rating, Corn",corn [14]; [25],20
same,"Plant response rating, Corn",corn [14]; [26],60
same,"Plant response rating, Kochia",kochia [15]; [25],70
same,"Plant response rating, Kochia",kochia [15]; [26],80
same,"Plant response rating, Oat, Wild","oat, wild [16]; [25]",10
same,"Plant response rating, Oat, Wild","oat, wild [16]; [26]",60
same,"Plant response rating, Pigweed, Palmer","pigweed, palmer [17]; [25]",40
same,"Plant response rating, Pigweed, Palmer","pigweed, palmer [17]; [26]",80
same,"Plant response rating, Ragweed",ragweed [18]; [25],30
same,"Plant response rating, Ragweed",ragweed [18]; [26],60
same,"Plant response rating, Ryegrass, Italian","ryegrass, Italian [19]; [25]",50
same,"Plant response rating, Ryegrass, Italian","ryegrass, Italian [19]; [26]",90
same,"Plant response rating, Soybean",soybean [20]; [25],100
same,"Plant response rating, Soybean",soybean [20]; [26],100
same,"Plant response rating, Wheat",wheat [21]; [25],10
same,"Plant response rating, Wheat",wheat [21]; [26],30
same,"Plant response rating, Galium",galium; [25],80
same,"Plant response rating, Galium",galium; [26],100
same,"Plant response rating, Horseweed",horseweed; [25],10
same,"Plant response rating, Horseweed",horseweed; [26],30
Cc1csc(-c2cccc(C(=O)N3C[C@H](C)Oc4c(C)cccc43)c2)c1 [Compound 245],"Plant response rating, Barnyardgrass",barnyardgrass [1]; 1000 g ai/ha,20
same,"Plant response rating, Blackgrass",blackgrass [2]; 1000 g ai/ha,0
same,"Plant response rating, Foxtail, Green",green foxtail [4]; 1000 g ai/ha,30
same,"Plant response rating, Kochia",kochia [5]; 1000 g ai/ha,0
same,"Plant response rating, Pigweed, Palmer","pigweed, palmer [7]; 1000 g ai/ha",20
same,"Plant response rating, Ryegrass, Italian","ryegrass, Italian [9]; 1000 g ai/ha",60
same,"Plant response rating, Barnyardgrass",barnyardgrass [12]; [27],0
same,"Plant response rating, Blackgrass",blackgrass [13]; [28],0
same,"Plant response rating, Foxtail, Green",green foxtail [22],0
same,"Plant response rating, Kochia",kochia [15]; [28],0
same,"Plant response rating, Pigweed, Palmer","pigweed, palmer [17]; [28]",0
same,"Plant response rating, Ragweed",ragweed [18]; [28],10
same,"Plant response rating, Ryegrass, Italian","ryegrass, Italian [19]; [28]",0
same,"Plant response rating, Galium",galium; [28],0
same,"Plant response rating, Horseweed",horseweed; [28],30
Cc1cc(-c2cccc(C(=O)N3C[C@H](C)Oc4c(C)cccc43)c2)cs1 [Compound 246],"Plant response rating, Barnyardgrass",barnyardgrass [1]; 1000 g ai/ha,0
same,"Plant response rating, Blackgrass",blackgrass [2]; 1000 g ai/ha,0
same,"Plant response rating, Foxtail, Green",green foxtail [4]; 1000 g ai/ha,0
same,"Plant response rating, Kochia",kochia [5]; 1000 g ai/ha,0
same,"Plant response rating, Pigweed, Palmer","pigweed, palmer [7]; 1000 g ai/ha",0
same,"Plant response rating, Ryegrass, Italian","ryegrass, Italian [9]; 1000 g ai/ha",30
same,"Plant response rating, Barnyardgrass",barnyardgrass [12]; [27],0
same,"Plant response rating, Blackgrass",blackgrass [13]; [28],0
same,"Plant response rating, Foxtail, Green",green foxtail [22],0
same,"Plant response rating, Kochia",kochia [15]; [28],20
same,"Plant response rating, Pigweed, Palmer","pigweed, palmer [17]; [28]",0
same,"Plant response rating, Ragweed",ragweed [18]; [28],30
same,"Plant response rating, Ryegrass, Italian","ryegrass, Italian [19]; [28]",0
same,"Plant response rating, Galium",galium; [28],0
same,"Plant response rating, Horseweed",horseweed; [28],30
Cc1cccc2c1O[C@@H](C)CN2C(=O)c1cccc(-c2cn(C)nn2)c1 [Compound 247],"Plant response rating, Barnyardgrass",barnyardgrass [1]; 1000 g ai/ha,0
same,"Plant response rating, Blackgrass",blackgrass [2]; 1000 g ai/ha,0
same,"Plant response rating, Foxtail, Green",green foxtail [4]; 1000 g ai/ha,0
same,"Plant response rating, Kochia",kochia [5]; 1000 g ai/ha,0
same,"Plant response rating, Ragweed",ragweed [8]; 1000 g ai/ha,0
same,"Plant response rating, Ryegrass, Italian","ryegrass, Italian [9]; 1000 g ai/ha",30
same,"Plant response rating, Barnyardgrass",barnyardgrass [12]; [27],10
same,"Plant response rating, Blackgrass",blackgrass [13]; [28],0
same,"Plant response rating, Foxtail, Green",green foxtail [22],30
same,"Plant response rating, Kochia",kochia [15]; [28],0
same,"Plant response rating, Pigweed, Palmer","pigweed, palmer [17]; [28]",10
same,"Plant response rating, Ragweed",ragweed [18]; [28],0
same,"Plant response rating, Ryegrass, Italian","ryegrass, Italian [19]; [28]",0
same,"Plant response rating, Galium",galium; [28],20
same,"Plant response rating, Horseweed",horseweed; [28],20
